Experimental data from ChEMBL document CHEMBL1142197, “The relationship between quinolone exposures and resistance amplification is characterized by an inverted U: a new paradigm for optimizing pharmacodynamics to counterselect resistance” (2007).
≈ marks a conversion by molar mass, not a printed value.

Legend:
Type in all cases: functional
[1] = tested on: Klebsiella pneumoniae; assay: Antibacterial activity against Klebsiella pneumoniae ATCC 13883 by broth macrodilution method
[2] = tested on: Staphylococcus aureus; assay: Antibacterial activity against ciprofloxacin-resistant methicillin-resistant Staphylococcus aureus by broth macrodilution method
[3] = tested on: Staphylococcus aureus; assay: Antibacterial activity against ciprofloxacin-susceptible methicillin-resistant Staphylococcus aureus by broth macrodilution method
[4] = tested on: Klebsiella pneumoniae; assay: Antibacterial activity against Klebsiella pneumoniae ATCC 13883 by broth macrodilution method at 48 hrs; settings: ATCC 13883, 48 h
[5] = tested on: Staphylococcus aureus; assay: Antibacterial activity against ciprofloxacin-susceptible methicillin-resistant Staphylococcus aureus at 48 hrs by broth macrodilution method
[6] = tested on: Staphylococcus aureus; assay: Antibacterial activity against ciprofloxacin-resistant methicillin-resistant Staphylococcus aureus at 48 hrs by broth macrodilution method

## C[C@H]1NCc2cc(-c3ccc4c(=O)c(C(=O)O)cn(C5CC5)c4c3OC(F)F)ccc21 [GARENOXACIN]
[1]
  MBC: 0.32 µg/mL (≈ 0.75 µM)
  MIC: 0.16 µg/mL (≈ 0.375 µM)
[2]
  MBC: 0.32 µg/mL (≈ 0.75 µM)
  MIC: 0.16 µg/mL (≈ 0.375 µM)
[3]
  MBC: 0.32 µg/mL (≈ 0.75 µM)
  MIC: 0.04 µg/mL (≈ 0.0938 µM)
[4]
  MIC: 0.64 µg/mL (≈ 1.5 µM)
[5]
  MIC: 0.08 µg/mL (≈ 0.188 µM)
[6]
  MIC: 2.56 µg/mL (≈ 6 µM)
